Laboratory results taken from PubChem BioAssay (NCI).
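Growth conditions: 96-well plates. Treatment: test compound, 48 hours, 5 concentrations. Analysis: linear interpolation between bracketing concentrations; unreached endpoints set to highest concentration. GI50: concentration for 50% inhibition of growth. TGI is the concentration that stops growth completely.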

Experiments:
Assay in all cases: inhibition of tumour cell growth, NCI panel, 48 h
A498 renal = test system: A498 renal
CAKI-1 renal = test system: CAKI-1 renal
HOP-92 NSCLC = test system: HOP-92 NSCLC
COLO 205 colon = test system: COLO 205 colon
SK-MEL-28 melanoma = test system: SK-MEL-28 melanoma
HT29 colon = test system: HT29 colon
MCF7 breast = test system: MCF7 breast
HCT-15 colon = test system: HCT-15 colon
EKVX NSCLC = test system: EKVX NSCLC
SK-OV-3 ovarian = test system: SK-OV-3 ovarian
UACC-62 melanoma = test system: UACC-62 melanoma
HL-60(TB) leukemia = test system: HL-60(TB) leukemia
TK-10 renal = test system: TK-10 renal
SF-539 CNS = test system: SF-539 CNS
OVCAR-8 ovarian = test system: OVCAR-8 ovarian
U251 CNS = test system: U251 CNS
IGROV1 ovarian = test system: IGROV1 ovarian
PC-3 prostate = test system: PC-3 prostate
RXF 393 renal = test system: RXF 393 renal
SF-268 CNS = test system: SF-268 CNS
RPMI-8226 leukemia = test system: RPMI-8226 leukemia
MDA-MB-231 breast = test system: MDA-MB-231 breast
MOLT-4 leukemia = test system: MOLT-4 leukemia
SW-620 colon = test system: SW-620 colon
SNB-75 CNS = test system: SNB-75 CNS
OVCAR-3 ovarian = test system: OVCAR-3 ovarian
ACHN renal = test system: ACHN renal
SK-MEL-2 melanoma = test system: SK-MEL-2 melanoma
786-0 renal = test system: 786-0 renal
BT-549 breast = test system: BT-549 breast
OVCAR-5 ovarian = test system: OVCAR-5 ovarian
LOX IMVI melanoma = test system: LOX IMVI melanoma
UO-31 renal = test system: UO-31 renal
NCI-H23 lung = test system: NCI-H23 lung
UACC-257 melanoma = test system: UACC-257 melanoma
K-562 leukemia = test system: K-562 leukemia
DU-145 prostate = test system: DU-145 prostate
T-47D breast = test system: T-47D breast
MDA-MB-435 = test system: MDA-MB-435
SNB-19 CNS = test system: SNB-19 CNS
SK-MEL-5 melanoma = test system: SK-MEL-5 melanoma
SN12C renal = test system: SN12C renal
HCC-2998 colon = test system: HCC-2998 colon
HS 578T breast = test system: HS 578T breast
SF-295 CNS = test system: SF-295 CNS
HCT-116 colon = test system: HCT-116 colon
A549 NSCLC = test system: A549 NSCLC
CCRF-CEM leukemia = test system: CCRF-CEM leukemia
MALME-3M melanoma = test system: MALME-3M melanoma
M14 melanoma = test system: M14 melanoma
NCI-H522 lung = test system: NCI-H522 lung
NCI-H460 lung = test system: NCI-H460 lung
OVCAR-4 ovarian = test system: OVCAR-4 ovarian
NCI/ADR-RES ovarian = test system: NCI/ADR-RES ovarian
HOP-62 NSCLC = test system: HOP-62 NSCLC
KM12 colon = test system: KM12 colon

Question: `CC1=C([Te]c2ccccc2)C(=O)c2ccccc2C1=O` was tested. Which GI50 (A498 renal) did it give?
Answer: 239 nM

Question: And the TGI (A498 renal)?
Answer: 977 nM

Question: And the GI50 (CAKI-1 renal)?
Answer: 974 nM

Question: What about the TGI (CAKI-1 renal) of the same molecule?
Answer: 3200 nM

Question: And the GI50 (HOP-92 NSCLC)?
Answer: 315 nM

Question: And the TGI (HOP-92 NSCLC)?
Answer: 1390 nM

Question: And the GI50 (COLO 205 colon)?
Answer: 457 nM

Question: And the TGI (COLO 205 colon)?
Answer: 1450 nM

Question: And the GI50 (SK-MEL-28 melanoma)?
Answer: 1250 nM

Question: And the TGI (SK-MEL-28 melanoma)?
Answer: 3110 nM

Question: What about the GI50 (HT29 colon) of the same molecule?
Answer: 344 nM

Question: What about the TGI (HT29 colon) of the same molecule?
Answer: 1360 nM

Question: And the GI50 (MCF7 breast)?
Answer: 249 nM

Question: What about the TGI (MCF7 breast) of the same molecule?
Answer: 943 nM

Question: And the GI50 (HCT-15 colon)?
Answer: 346 nM

Question: What about the TGI (HCT-15 colon) of the same molecule?
Answer: 1560 nM

Question: And the GI50 (EKVX NSCLC)?
Answer: 207 nM

Question: What about the TGI (EKVX NSCLC) of the same molecule?
Answer: 760 nM

Question: What about the GI50 (SK-OV-3 ovarian) of the same molecule?
Answer: 335 nM

Question: What about the TGI (SK-OV-3 ovarian) of the same molecule?
Answer: 1280 nM

Question: What about the GI50 (UACC-62 melanoma) of the same molecule?
Answer: 1430 nM

Question: What about the TGI (UACC-62 melanoma) of the same molecule?
Answer: 3800 nM

Question: And the GI50 (HL-60(TB) leukemia)?
Answer: 326 nM

Question: What about the TGI (HL-60(TB) leukemia) of the same molecule?
Answer: 1540 nM

Question: And the GI50 (TK-10 renal)?
Answer: 1710 nM

Question: And the TGI (TK-10 renal)?
Answer: 4050 nM

Question: And the GI50 (SF-539 CNS)?
Answer: 146 nM

Question: And the TGI (SF-539 CNS)?
Answer: 1030 nM

Question: And the GI50 (OVCAR-8 ovarian)?
Answer: 374 nM

Question: What about the TGI (OVCAR-8 ovarian) of the same molecule?
Answer: 4350 nM

Question: And the GI50 (U251 CNS)?
Answer: 331 nM

Question: And the TGI (U251 CNS)?
Answer: 1560 nM

Question: And the GI50 (IGROV1 ovarian)?
Answer: 500 nM

Question: And the TGI (IGROV1 ovarian)?
Answer: 1820 nM

Question: What about the GI50 (PC-3 prostate) of the same molecule?
Answer: 297 nM

Question: What about the TGI (PC-3 prostate) of the same molecule?
Answer: 2030 nM

Question: What about the GI50 (RXF 393 renal) of the same molecule?
Answer: 1140 nM

Question: And the TGI (RXF 393 renal)?
Answer: 4630 nM

Question: What about the GI50 (SF-268 CNS) of the same molecule?
Answer: 383 nM

Question: And the TGI (SF-268 CNS)?
Answer: 1640 nM

Question: And the GI50 (RPMI-8226 leukemia)?
Answer: 275 nM

Question: And the TGI (RPMI-8226 leukemia)?
Answer: 1310 nM

Question: What about the GI50 (MDA-MB-231 breast) of the same molecule?
Answer: 227 nM

Question: What about the TGI (MDA-MB-231 breast) of the same molecule?
Answer: 573 nM

Question: What about the GI50 (MOLT-4 leukemia) of the same molecule?
Answer: 287 nM

Question: And the TGI (MOLT-4 leukemia)?
Answer: 1300 nM

Question: And the GI50 (SW-620 colon)?
Answer: 475 nM

Question: And the TGI (SW-620 colon)?
Answer: 1740 nM

Question: And the GI50 (SNB-75 CNS)?
Answer: 207 nM

Question: And the TGI (SNB-75 CNS)?
Answer: 898 nM

Question: And the GI50 (OVCAR-3 ovarian)?
Answer: 1040 nM

Question: What about the TGI (OVCAR-3 ovarian) of the same molecule?
Answer: 2230 nM

Question: What about the GI50 (ACHN renal) of the same molecule?
Answer: 454 nM

Question: What about the TGI (ACHN renal) of the same molecule?
Answer: 1610 nM

Question: And the GI50 (SK-MEL-2 melanoma)?
Answer: 2370 nM

Question: What about the TGI (SK-MEL-2 melanoma) of the same molecule?
Answer: 5580 nM

Question: What about the GI50 (786-0 renal) of the same molecule?
Answer: 2010 nM

Question: And the TGI (786-0 renal)?
Answer: 3960 nM

Question: What about the GI50 (BT-549 breast) of the same molecule?
Answer: 232 nM

Question: What about the TGI (BT-549 breast) of the same molecule?
Answer: 842 nM

Question: What about the GI50 (OVCAR-5 ovarian) of the same molecule?
Answer: 283 nM

Question: What about the TGI (OVCAR-5 ovarian) of the same molecule?
Answer: 860 nM

Question: What about the GI50 (LOX IMVI melanoma) of the same molecule?
Answer: 311 nM

Question: What about the TGI (LOX IMVI melanoma) of the same molecule?
Answer: 1490 nM

Question: What about the GI50 (UO-31 renal) of the same molecule?
Answer: 246 nM

Question: And the TGI (UO-31 renal)?
Answer: 1120 nM

Question: And the GI50 (NCI-H23 lung)?
Answer: 298 nM

Question: And the TGI (NCI-H23 lung)?
Answer: 1050 nM

Question: What about the GI50 (UACC-257 melanoma) of the same molecule?
Answer: 2230 nM

Question: What about the TGI (UACC-257 melanoma) of the same molecule?
Answer: 5920 nM

Question: What about the GI50 (K-562 leukemia) of the same molecule?
Answer: 1070 nM

Question: What about the TGI (K-562 leukemia) of the same molecule?
Answer: 3400 nM

Question: What about the GI50 (DU-145 prostate) of the same molecule?
Answer: 424 nM

Question: What about the TGI (DU-145 prostate) of the same molecule?
Answer: 1580 nM

Question: What about the GI50 (T-47D breast) of the same molecule?
Answer: 488 nM

Question: What about the TGI (T-47D breast) of the same molecule?
Answer: 2780 nM

Question: And the GI50 (MDA-MB-435)?
Answer: 1800 nM

Question: And the TGI (MDA-MB-435)?
Answer: 4020 nM

Question: What about the GI50 (SNB-19 CNS) of the same molecule?
Answer: 551 nM

Question: And the TGI (SNB-19 CNS)?
Answer: 2560 nM

Question: What about the GI50 (SK-MEL-5 melanoma) of the same molecule?
Answer: 799 nM

Question: And the TGI (SK-MEL-5 melanoma)?
Answer: 2030 nM

Question: And the GI50 (SN12C renal)?
Answer: 311 nM

Question: And the TGI (SN12C renal)?
Answer: 1470 nM

Question: And the GI50 (HCC-2998 colon)?
Answer: 483 nM

Question: And the TGI (HCC-2998 colon)?
Answer: 1550 nM

Question: What about the GI50 (HS 578T breast) of the same molecule?
Answer: 303 nM

Question: What about the TGI (HS 578T breast) of the same molecule?
Answer: 2460 nM

Question: What about the GI50 (SF-295 CNS) of the same molecule?
Answer: 240 nM

Question: What about the TGI (SF-295 CNS) of the same molecule?
Answer: 697 nM

Question: What about the GI50 (HCT-116 colon) of the same molecule?
Answer: 284 nM

Question: What about the TGI (HCT-116 colon) of the same molecule?
Answer: 901 nM

Question: And the GI50 (A549 NSCLC)?
Answer: 298 nM

Question: What about the TGI (A549 NSCLC) of the same molecule?
Answer: 1230 nM

Question: What about the GI50 (CCRF-CEM leukemia) of the same molecule?
Answer: 312 nM

Question: And the TGI (CCRF-CEM leukemia)?
Answer: 3300 nM

Question: And the GI50 (MALME-3M melanoma)?
Answer: 1790 nM

Question: What about the TGI (MALME-3M melanoma) of the same molecule?
Answer: 3560 nM

Question: And the GI50 (M14 melanoma)?
Answer: 424 nM

Question: And the TGI (M14 melanoma)?
Answer: 1760 nM

Question: And the GI50 (NCI-H522 lung)?
Answer: 909 nM

Question: And the TGI (NCI-H522 lung)?
Answer: 4240 nM

Question: And the GI50 (NCI-H460 lung)?
Answer: 177 nM

Question: What about the TGI (NCI-H460 lung) of the same molecule?
Answer: 391 nM

Question: What about the GI50 (OVCAR-4 ovarian) of the same molecule?
Answer: 1630 nM

Question: And the TGI (OVCAR-4 ovarian)?
Answer: 3530 nM

Question: And the GI50 (NCI/ADR-RES ovarian)?
Answer: 426 nM

Question: What about the TGI (NCI/ADR-RES ovarian) of the same molecule?
Answer: 2630 nM

Question: What about the GI50 (HOP-62 NSCLC) of the same molecule?
Answer: 266 nM

Question: And the TGI (HOP-62 NSCLC)?
Answer: 762 nM

Question: What about the GI50 (KM12 colon) of the same molecule?
Answer: 337 nM

Question: And the TGI (KM12 colon)?
Answer: 1210 nM
